Data on 15 compounds can be found in ChEMBL document CHEMBL1155836, “Discovery of imidazole carboxamides as potent and selective CCK1R agonists” (Bioorg Med Chem Lett, 2008).

The source made the active and inactive calls. The calls are words filed in the database; no cut-off is given here. A value given as a limit tells only on which side of the number the result lay.

One test deals with T1, Gastrin/cholecystokinin type B receptor (Homo sapiens) (UniProt P32239).
T1 sequence (whole entry): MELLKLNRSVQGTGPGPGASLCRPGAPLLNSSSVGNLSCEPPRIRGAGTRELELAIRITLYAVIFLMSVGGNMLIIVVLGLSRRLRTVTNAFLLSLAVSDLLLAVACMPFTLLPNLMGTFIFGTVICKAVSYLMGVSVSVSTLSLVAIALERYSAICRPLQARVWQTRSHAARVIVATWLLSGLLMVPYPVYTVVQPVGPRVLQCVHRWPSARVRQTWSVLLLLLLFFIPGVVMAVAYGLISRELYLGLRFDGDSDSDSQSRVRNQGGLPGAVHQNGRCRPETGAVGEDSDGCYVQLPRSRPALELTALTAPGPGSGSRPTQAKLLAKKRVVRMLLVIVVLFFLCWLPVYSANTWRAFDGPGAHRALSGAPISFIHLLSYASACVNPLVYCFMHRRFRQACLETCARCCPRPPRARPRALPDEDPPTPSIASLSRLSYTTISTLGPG
Put plainly: Agonist activity against human CCK2 receptor. In kind it is functional.
In the case of `CCOc1cccc(-n2cc(C(=O)N3CCN(c4ccc5ccccc5c4)CC3)nc2-c2ccccc2)c1`, the result was inactive.

On to `COc1cccc(-n2cc(C(=O)N3CCN(c4cc5ccccc5cc4C(=O)O)CC3)nc2-c2ccc(C)cc2)c1`, for which the result was inactive.

Consider `COc1cccc(-n2cc(C(=O)N3CCN(c4cccc5ccccc45)CC3)nc2-c2ccc(C)cc2)c1`, for which the result was inactive.

On to `COc1cccc(-n2cc(C(=O)N3CCN(c4ccc5cnccc5c4)CC3)nc2-c2ccc(C)cc2)c1`, for which the outcome was inactive.

For the compound `COc1cccc(-n2cc(C(=O)N3CCN(c4ccc5ccccc5n4)CC3)nc2-c2ccc(C)cc2)c1`, the result was inactive.

Regarding `CCOc1cccc(-n2cc(C(=O)N3CCN(c4ccc5ccccc5c4)CC3)nc2-c2ccc(C)cc2F)c1`, the outcome was inactive.

As for `COc1cccc(-n2cc(C(=O)N3CCN(c4nc5ccccc5[nH]4)CC3)nc2-c2ccc(C)cc2)c1`, the outcome was inactive.

As to `CCCOc1cccc(-n2cc(C(=O)N3CCN(c4ccc5ccccc5c4)CC3)nc2-c2ccc(C)cc2)c1`, the result was inactive.

Turning to `CCOc1cccc(-n2cc(C(=O)N3CCN(c4ccc5ccccc5c4)CC3)nc2-c2ccc(C)cc2)c1`, the result was inactive.

Turning to `Cc1ccc(-c2nc(C(=O)N3CCN(c4ccc5ccccc5c4)CC3)cn2-c2cccc(O)c2)cc1`, the outcome was inactive.

For the compound `COc1cccc(-n2cc(C(=O)N3CCN(c4cc(C(=O)O)c5ccccc5c4)CC3)nc2-c2ccc(C)cc2)c1`, the outcome was inactive.

For the compound `Cc1ccc(-c2nc(C(=O)N3CCN(c4ccc5ccccc5c4)CC3)cn2-c2cccc(OC(F)(F)F)c2)cc1`, the result was inactive.

Turning to `CCOc1cccc(-n2cc(C(=O)N3CCN(c4ccc5ccccc5c4)CC3)nc2-c2ccc(F)cc2)c1`, the result was inactive.

Turning to `CCOc1cccc(-n2cc(C(=O)N3CCN(c4ccc5ccccc5c4)CC3)nc2-c2ccc(F)cc2F)c1`, the outcome was inactive.

A further test concerns the target T2, Cholecystokinin receptor type A (Homo sapiens, UniProt P32238).
T2 sequence (P32238 whole entry): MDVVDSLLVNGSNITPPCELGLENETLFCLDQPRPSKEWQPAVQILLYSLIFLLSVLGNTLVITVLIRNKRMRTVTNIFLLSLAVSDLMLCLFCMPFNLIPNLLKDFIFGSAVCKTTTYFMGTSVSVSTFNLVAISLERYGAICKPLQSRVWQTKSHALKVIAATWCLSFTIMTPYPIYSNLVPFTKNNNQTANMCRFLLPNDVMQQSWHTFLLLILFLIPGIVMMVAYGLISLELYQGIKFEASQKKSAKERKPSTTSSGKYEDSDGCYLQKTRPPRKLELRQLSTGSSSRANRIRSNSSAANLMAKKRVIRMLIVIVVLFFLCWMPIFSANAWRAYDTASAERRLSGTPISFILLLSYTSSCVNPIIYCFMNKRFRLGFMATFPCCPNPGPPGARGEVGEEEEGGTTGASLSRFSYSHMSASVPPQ
Put plainly: Agonist activity against human CCK1 receptor. Type of test: functional.
As to `CCOc1cccc(-n2cc(C(=O)N3CCN(c4ccc5ccccc5c4)CC3)nc2-c2ccccc2)c1`, it took 7.4 nM to reach a half-maximal effect (EC50).

For `COc1cccc(-n2cc(C(=O)N3CCN(c4cc5ccccc5cc4C(=O)O)CC3)nc2-c2ccc(C)cc2)c1`, a half-maximal effect (EC50) was put at 0.4 nM.

Turning to `COc1cccc(-n2cc(C(=O)N3CCN(c4cccc5ccccc45)CC3)nc2-c2ccc(C)cc2)c1`, a half-maximal effect (EC50) was put at 5370 nM.

`COc1cccc(-n2cc(C(=O)N3CCN(c4ccc5cnccc5c4)CC3)nc2-c2ccc(C)cc2)c1`: the midpoint of the response, the EC50, lay at 106 nM.

Take `COc1cccc(-n2cc(C(=O)N3CCN(c4ccc5ccccc5n4)CC3)nc2-c2ccc(C)cc2)c1`: the response was half-maximal at 43 nM (EC50).

As to `CCOc1cccc(-n2cc(C(=O)N3CCN(c4ccc5ccccc5c4)CC3)nc2-c2ccc(C)cc2F)c1`, the EC50 (usually the concentration that produces a half-maximal response) was found to be 1.9 nM.

`COc1cccc(-n2cc(C(=O)N3CCN(c4nc5ccccc5[nH]4)CC3)nc2-c2ccc(C)cc2)c1` displayed an EC50 of 9.1 nM.

`CCCOc1cccc(-n2cc(C(=O)N3CCN(c4ccc5ccccc5c4)CC3)nc2-c2ccc(C)cc2)c1` registered an EC50 of 962 nM.

Compound `CCOc1cccc(-n2cc(C(=O)N3CCN(c4ccc5ccccc5c4)CC3)nc2-c2ccc(C)cc2)c1` showed an EC50 of 6.6 nM.

With `Cc1ccc(-c2nc(C(=O)N3CCN(c4ccc5ccccc5c4)CC3)cn2-c2cccc(O)c2)cc1`, the EC50 amounted to 82 nM.

The compound `COc1cccc(-n2cc(C(=O)N3CCN(c4cc(C(=O)O)c5ccccc5c4)CC3)nc2-c2ccc(C)cc2)c1` gave a concentration giving a half-maximal response (EC50) of 0.078 nM.

Regarding `Cc1ccc(-c2nc(C(=O)N3CCN(c4ccc5ccccc5c4)CC3)cn2-c2cccc(OC(F)(F)F)c2)cc1`, the concentration for a half-maximal effect (EC50) worked out at 3150 nM.

With `CCOc1cccc(-n2cc(C(=O)N3CCN(c4ccc5ccccc5c4)CC3)nc2-c2ccc(F)cc2)c1`, the response was half-maximal at 2.9 nM (EC50).

The compound `COc1cccc(-c2cc(C(=O)N3CCN(c4cccc(Cl)c4)CC3)nn2-c2ccc(C)cc2)c1` came in with an EC50 of 308 nM.

`CCOc1cccc(-n2cc(C(=O)N3CCN(c4ccc5ccccc5c4)CC3)nc2-c2ccc(F)cc2F)c1`: the concentration giving a half-maximal response (EC50) is 1.1 nM.

Another test concerns the target T1, Gastrin/cholecystokinin type B receptor (Homo sapiens). In words: Agonist activity against human CCK2 receptor assessed as receptor activation at 10000 nM. In kind it is functional.
As to `CCOc1cccc(-n2cc(C(=O)N3CCN(c4ccc5ccccc5c4)CC3)nc2-c2ccccc2)c1`, the Activity was less than 12%.

On to `COc1cccc(-n2cc(C(=O)N3CCN(c4cc5ccccc5cc4C(=O)O)CC3)nc2-c2ccc(C)cc2)c1`, for which the Activity was less than 20%.

For the compound `COc1cccc(-n2cc(C(=O)N3CCN(c4cccc5ccccc45)CC3)nc2-c2ccc(C)cc2)c1`, the Activity was less than 20%.

As to `COc1cccc(-n2cc(C(=O)N3CCN(c4ccc5cnccc5c4)CC3)nc2-c2ccc(C)cc2)c1`, the Activity was less than 20%.

In the case of `COc1cccc(-n2cc(C(=O)N3CCN(c4ccc5ccccc5n4)CC3)nc2-c2ccc(C)cc2)c1`, the Activity was less than 20%.

Regarding `CCOc1cccc(-n2cc(C(=O)N3CCN(c4ccc5ccccc5c4)CC3)nc2-c2ccc(C)cc2F)c1`, the Activity was less than 12%.

Take `COc1cccc(-n2cc(C(=O)N3CCN(c4nc5ccccc5[nH]4)CC3)nc2-c2ccc(C)cc2)c1`: the Activity is less than 20%.

For `CCCOc1cccc(-n2cc(C(=O)N3CCN(c4ccc5ccccc5c4)CC3)nc2-c2ccc(C)cc2)c1`, the Activity was less than 21%.

Consider `CCOc1cccc(-n2cc(C(=O)N3CCN(c4ccc5ccccc5c4)CC3)nc2-c2ccc(C)cc2)c1`, for which the Activity was less than 12%.

Consider `Cc1ccc(-c2nc(C(=O)N3CCN(c4ccc5ccccc5c4)CC3)cn2-c2cccc(O)c2)cc1`, for which the Activity is less than 21%.

For the compound `COc1cccc(-n2cc(C(=O)N3CCN(c4cc(C(=O)O)c5ccccc5c4)CC3)nc2-c2ccc(C)cc2)c1`, the Activity is less than 20%.

Take `Cc1ccc(-c2nc(C(=O)N3CCN(c4ccc5ccccc5c4)CC3)cn2-c2cccc(OC(F)(F)F)c2)cc1`: the Activity was less than 21%.

Consider `CCOc1cccc(-n2cc(C(=O)N3CCN(c4ccc5ccccc5c4)CC3)nc2-c2ccc(F)cc2)c1`, for which the Activity is less than 12%.

As for `COc1cccc(-c2cc(C(=O)N3CCN(c4cccc(Cl)c4)CC3)nn2-c2ccc(C)cc2)c1`, the Activity worked out at 4.4%.

In the case of `CCOc1cccc(-n2cc(C(=O)N3CCN(c4ccc5ccccc5c4)CC3)nc2-c2ccc(F)cc2F)c1`, the Activity is less than 12%.

A further test has as its target T2, Cholecystokinin receptor type A. Put plainly: Inhibition of human CCK1 receptor.
`CCOc1cccc(-n2cc(C(=O)N3CCN(c4ccc5ccccc5c4)CC3)nc2-c2ccccc2)c1`: the IC50 (commonly the concentration that inhibits the measured activity by half) is 3.4 nM.

The compound `COc1cccc(-n2cc(C(=O)N3CCN(c4cc5ccccc5cc4C(=O)O)CC3)nc2-c2ccc(C)cc2)c1` returned an IC50 of 1.3 nM.

The compound `COc1cccc(-n2cc(C(=O)N3CCN(c4cccc5ccccc45)CC3)nc2-c2ccc(C)cc2)c1` showed a half-inhibitory concentration (IC50) of 630 nM.

Consider `COc1cccc(-n2cc(C(=O)N3CCN(c4ccc5cnccc5c4)CC3)nc2-c2ccc(C)cc2)c1`, for which the half-maximal inhibitory concentration (IC50) is 190 nM.

Take `COc1cccc(-n2cc(C(=O)N3CCN(c4ccc5ccccc5n4)CC3)nc2-c2ccc(C)cc2)c1`: the IC50 was determined as 16 nM.

Turning to `CCOc1cccc(-n2cc(C(=O)N3CCN(c4ccc5ccccc5c4)CC3)nc2-c2ccc(C)cc2F)c1`, the half-maximal inhibitory concentration (IC50) was 0.56 nM.

`COc1cccc(-n2cc(C(=O)N3CCN(c4nc5ccccc5[nH]4)CC3)nc2-c2ccc(C)cc2)c1`: the concentration for half-maximal inhibition (IC50) was 17 nM.

Turning to `CCCOc1cccc(-n2cc(C(=O)N3CCN(c4ccc5ccccc5c4)CC3)nc2-c2ccc(C)cc2)c1`, half-maximal inhibition (IC50) required 160 nM.

The compound `CCOc1cccc(-n2cc(C(=O)N3CCN(c4ccc5ccccc5c4)CC3)nc2-c2ccc(C)cc2)c1` yielded an IC50 of 2.3 nM.

With `Cc1ccc(-c2nc(C(=O)N3CCN(c4ccc5ccccc5c4)CC3)cn2-c2cccc(O)c2)cc1`, 22 nM corresponded to half-maximal inhibition (IC50).

`COc1cccc(-n2cc(C(=O)N3CCN(c4cc(C(=O)O)c5ccccc5c4)CC3)nc2-c2ccc(C)cc2)c1` showed an IC50 of 0.14 nM.

Compound `Cc1ccc(-c2nc(C(=O)N3CCN(c4ccc5ccccc5c4)CC3)cn2-c2cccc(OC(F)(F)F)c2)cc1` had an IC50 of 130 nM.

In the case of `CCOc1cccc(-n2cc(C(=O)N3CCN(c4ccc5ccccc5c4)CC3)nc2-c2ccc(F)cc2)c1`, the IC50 is 1.9 nM.

With `COc1cccc(-c2cc(C(=O)N3CCN(c4cccc(Cl)c4)CC3)nn2-c2ccc(C)cc2)c1`, the 50% inhibitory concentration (IC50) came out at 41 nM.

`CCOc1cccc(-n2cc(C(=O)N3CCN(c4ccc5ccccc5c4)CC3)nc2-c2ccc(F)cc2F)c1`: the IC50 was determined as 1 nM.

For another test, the target named is T3, Cholecystokinin receptor type A (Homo sapiens) (UniProt P32238).
T3 sequence (whole entry): T2 sequence (P32238 whole entry)
In words: Agonist activity against human CCK1 receptor assessed as receptor activation at 10000 nM. Type of test: functional.
In the case of `CCOc1cccc(-n2cc(C(=O)N3CCN(c4ccc5ccccc5c4)CC3)nc2-c2ccccc2)c1`, the Activity stood at 100%.

On to `COc1cccc(-n2cc(C(=O)N3CCN(c4cc5ccccc5cc4C(=O)O)CC3)nc2-c2ccc(C)cc2)c1`, for which the Activity was found to be 92%.

Take `COc1cccc(-n2cc(C(=O)N3CCN(c4cccc5ccccc45)CC3)nc2-c2ccc(C)cc2)c1`: the Activity was 30%.

For the compound `COc1cccc(-n2cc(C(=O)N3CCN(c4ccc5cnccc5c4)CC3)nc2-c2ccc(C)cc2)c1`, the Activity was 86%.

Consider `COc1cccc(-n2cc(C(=O)N3CCN(c4ccc5ccccc5n4)CC3)nc2-c2ccc(C)cc2)c1`, for which the Activity was 89%.

For `CCOc1cccc(-n2cc(C(=O)N3CCN(c4ccc5ccccc5c4)CC3)nc2-c2ccc(C)cc2F)c1`, the Activity is 116%.

Turning to `COc1cccc(-n2cc(C(=O)N3CCN(c4nc5ccccc5[nH]4)CC3)nc2-c2ccc(C)cc2)c1`, the Activity was 89%.

As to `CCCOc1cccc(-n2cc(C(=O)N3CCN(c4ccc5ccccc5c4)CC3)nc2-c2ccc(C)cc2)c1`, the Activity amounted to 89%.

Turning to `CCOc1cccc(-n2cc(C(=O)N3CCN(c4ccc5ccccc5c4)CC3)nc2-c2ccc(C)cc2)c1`, the Activity turned out to be 93%.

For the compound `Cc1ccc(-c2nc(C(=O)N3CCN(c4ccc5ccccc5c4)CC3)cn2-c2cccc(O)c2)cc1`, the Activity was 102%.

As to `COc1cccc(-n2cc(C(=O)N3CCN(c4cc(C(=O)O)c5ccccc5c4)CC3)nc2-c2ccc(C)cc2)c1`, the Activity stood at 85%.

For the compound `Cc1ccc(-c2nc(C(=O)N3CCN(c4ccc5ccccc5c4)CC3)cn2-c2cccc(OC(F)(F)F)c2)cc1`, the Activity was determined as 66%.

In the case of `CCOc1cccc(-n2cc(C(=O)N3CCN(c4ccc5ccccc5c4)CC3)nc2-c2ccc(F)cc2)c1`, the Activity came to 96%.

With `COc1cccc(-c2cc(C(=O)N3CCN(c4cccc(Cl)c4)CC3)nn2-c2ccc(C)cc2)c1`, the Activity came out at 82%.

Turning to `CCOc1cccc(-n2cc(C(=O)N3CCN(c4ccc5ccccc5c4)CC3)nc2-c2ccc(F)cc2F)c1`, the Activity is 103%.
